Reference: paper PMC4139006 (Pediatric blood & cancer, 2013)
Read-outs that look alike come from different tables or passages of the source.

Tests used:
[1] = human, in vivo
clinical = details: human, in vivo, po
Phase I dose escalation = assay type: in vivo, children; details: oral, days 1–5 every 28 days, VOR about one hour before TEM
medulloblastoma/PNETs = details: of 25 evaluable patients with medulloblastoma/PNETs; cited from earlier work
low-grade glioma = details: single-agent temozolomide, cited from earlier work
[2] = systemically administered; cited from earlier work
[3] = given continuously as a single daily dose; pediatric; cited from earlier work

| Structure (SMILES) | Cmax ([1]; po, 300 mg/m2) | half-life ([1]; po, 300 mg/m2) | half-life (clinical; 230 mg/m2, Half-life) | AUC(0-inf) (clinical; 300 mg/m2, AUC0-∞) | Cmax (clinical; 300 mg/m2, Cmax) | half-life (clinical; 300 mg/m2, Half-life) | pediatric MTD and recommended phase II dosing for the combination of VOR and TEM (Phase I dose escalation) | further results |
| --- | --- | --- | --- | --- | --- | --- | --- | --- |
| O=C(O)CCC(=O)Nc1ccccc1 [4-anilino-4-oxobutanoic acid, 4-anilino-4-oxobutanoic acid] | 814 (588 – 832) ng/ml | 9.19 (6.49 – 11.6) hrs | 10.4 h | 7490 ng·h/mL | 750 ng/mL | 9.18 h | – | AUC0-∞ ([1]; po, 300 mg/m2): 9590 (7150 – 16600) ng/ml*hr; Tmax ([1]; po, 300 mg/m2): 2.00 (0.88 – 6.00) hrs; AUC(0-inf) (clinical; 230 mg/m2, AUC0-∞): 6900 ng·h/mL; Cmax (clinical; 230 mg/m2, Cmax): 490 ng/mL; Tmax (clinical; 230 mg/m2, Tmax): 3 h; Tmax (clinical; 300 mg/m2, Tmax): 4 h |
| Cn1nnc2c(C(N)=O)ncn2c1=O [TEM, Temozolomide] | – | – | – | – | – | – | 150 mg/m^2/day | complete or partial responses, patients (medulloblastoma/PNETs): 4; patients having prolonged stable disease (low-grade glioma; adults): 30%; response rates (low-grade glioma; adults): 50–60%; median progression-free survival (PFS) (low-grade glioma): 22–28 months |
| O=C(CCCCCCC(=O)Nc1ccccc1)NO [VOR, suberoylanilide hydroxamic acid] | 578 (200 – 821) ng/ml | 2.80 (2.23 – 5.90) hrs | 2.61 h | 1790 ng·h/mL | 422 ng/mL | 2.62 h | 300 mg/m^2/day | time to maximum concentration [1]: 2 h; Cmax ([1]; po, 230 mg/m2): 390 (221 – 655) ng/ml; blood brain barrier crossing [2]: crosses the blood brain barrier; MTD of single-agent oral VOR [3]: 230 mg/m^2/day |
